According to patent US20230263774A1, “OPTIMIZED SURGERY PROTOCOL AND KITS” (Steadman Philippon Research Institute, priority 2020, published 2023):
“Also recorded” adds a separate entry of the source.

Columns and labels:
[1] = system: Z24−/− mice; assay: Senolytic treatment of progeroid Z24−/− mice, articular cartilage degeneration / OA; assay type: in vivo; conditions: for incidence/severity of age-related disorders including osteoarthritis (OA): progeroid mice accelerated aging model
Text: The Zmpste24−/− (Z24−/−) model of Hutchinson-Gilford Progeria Syndrome (HGPS) was used to model not only HGPS musculoskeletal decline, but also as a pre-clinical aging model due to its predictable and accelerated aging phenotypes. Z24−/− animals are short lived (˜6 months) and have severe musculoskeletal abnormalities including weight loss, dystonia, sarcopenia, osteoporosis and as reported herein, early signs of bone loss and spontaneous osteoarthritis (OA).
As a proof of concept for the potential of senolytics to reduce AC degeneration, a pilot study was conducted with Dasatinib+Quercitin (D/Q; 5 mg/kg; 50 mg/kg). Z24−/− mice were administered D/Q via oral gavage as a single dose (D/Qsin) at 4 months of age, or monthly dose starting at 2 months of age (D/Qmul) prior to sacrifice at 5 months.

[2] = system: human adipose-derived stem cells (ADSCs); assay: Senescent cells in culture-expanded adipose-derived stem cells, staining for senescence-associated heterochromatin foci (H2AX, H3K9); assay type: cell-based
Text: In preliminary experiments (FIG. 4), pre-existing senescent cells were found in cultured human adipose-derived stem cells (ADSCs). The ability of these cells to produce SASPs can induce significant damage to other stem cells or endogenous cells once re-administered into the intra-articular space. Thus, avoiding the proliferation of senescent cells from long-term expansion is critical to prevent these cells from compromising the ability of adult stem cells to repair cartilage. […] ADSCs from a young person (YF) and old person (OF) were cultured to passage 4 using normal proliferation media (DMEM/F-12, 10% FBS, 1% penicillin/streptomycin). The cells were subsequently treated with 50 μM of Fisetin for 24 hours and then cultured for 48 hours. Senescent cells were identified using antibodies for senescence-associated heterochromatin foci. […] These experiments support that Fisetin can eliminate senescent cells and SASPs in expanded stem cell populations, and this may apply to harvested tissues such as BMC from older OA patients that likely contain senescent cells (see FIGS. 2A-4, above).

[3] = system: senescent CD3+ T-Cells and plasma biomarkers; assay: Single case: patient on Fisetin, senescent CD3+ T-Cells (C12FDG) and plasma biomarkers; assay type: in vivo, human; conditions: 150 days of Fisetin 100 mg/day
Experimental: Another flow cytometry-based approach was optimized to assess senescent total PBMCs and CD3+ T-Cells from fresh human peripheral blood. For this approach, T-Cells were isolated from PBMCs, washed, then stained with the senescence marker C12FDG for 1 hr, and then used for flow cytometry analysis. Cells were identified using FSC and SSC controls, while senescent cells, or C12FDG+ events, were identified with an emission of 514 nm (green channel).
Thus, it was tested whether Fisetin could reduce senescent T-Cells and plasma biomarkers for OP in a single patient enrolled in the study that disclosed Fisetin use between blood draws. […] This was commensurate with a reduction in OP markers OPG, OPN, and SOST in addition to the pro-inflammatory SASP marker TNF-α (FIG. 25B). […] In addition, in a single case study, C12FDG staining was sensitive enough to detect reductions in senescent T-Cells associated with reduction in OP and SASP biomarkers following Fisetin therapy.

[4] = system: osteochondral defect in the patellar groove of New Zealand White rabbits; assay: Rabbit osteochondral defect + bone marrow stimulation (BMS) with oral Fisetin, oral Losartan and/or BMAC; assay type: in vivo; conditions: for Microscopic evaluation and micro-CT: 12 weeks postoperatively, with or without BMAC, preliminary; for healing capacity of BMS-mediated osteochondral defects: compared with BMS alone, preliminary results
Experimental: Bone Marrow Collection and BMAC Processing for Autologous Transplant: New Zealand White rabbits were anesthetized to collect bone marrow aspirate (BMA) using an 18 G heparinized spinal needle through both iliac crests simultaneously by two surgeons for the purpose of preparing bone marrow aspirate concentrate (BMAC). Bone marrow samples were collected in 10 ml syringes containing ACD-A as an anticoagulant (˜1.5 ml of ACD-A per 10 ml sample), processed under sterile BSCs, and a benchtop centrifuge was used to prepare BMACs. Filters were also used for BMA prior to processing into BMACs. These procedures were performed under sterile conditions.
A 5 mm diameter osteochondral defect was created in the patellar groove of bilateral knees for 64 New Zealand White rabbits (128 knees). Under a sterile technique, a midline 3 cm incision was made in a knee flexed at approximately 30° and approached intra-articularly through a medial parapatellar incision. The patella was dislocated, and a 5 mm diameter osteochondral defect was created in the patellar groove (depth: 2 mm), followed by BMS. To allow bone marrow MSCs to be introduced into the defect space, five equally spaced holes of 2 mm depth were drilled into the subchondral bone using a 0.7 mm burr. […] Once the creation of the osteochondral defect and the BMS procedure was completed, the joint capsule was closed and 0.5 ml of BMAC was injected into the joint cavity of the left knee.
(§1) Post-surgical evaluations were to be conducted at two time points: 6 & 12 weeks. Autologous BMAC was injected into the unilateral knee joint cavity immediately after surgery, with no BMAC injection on the other side. Each rabbit was orally treated with Fisetin, Losartan, or a combination of the two biologics from the day after surgery until the day of euthanasia, for comparison with the untreated group. Rabbits were sacrificed 6 weeks or 12 weeks postoperatively. The experimental groups were as follows (N-8 per group): 1) OD+BMS; 2) OD+BMS+oral Fisetin; 3) OD+BMS+oral Losartan; 4) OD+BMS+oral Fisetin+oral Losartan; 5) OD+BMS+BMAC; 6) OD+BMS+BMAC+oral Fisetin; 7) OD+BMS+BMAC+oral Losartan; and 8) OD+BMS+[…].

[5] = system: Superoxide Dismutase 1 (SOD1); assay: qPCR gene expression analysis of synovium harvested from the knee joint (rabbit OD + BMS study); assay type: in vivo, New Zealand White rabbits; conditions: Fisetin-treated group vs control group (p<0.01)
Experimental: as §1

[6] = system: PBMCs from fresh human peripheral blood; assay: Fisetin treatment of isolated PBMCs, C12FDG / DRAQ7 flow cytometry; assay type: cell-based
Text: A flow cytometry-based approach to assess senescent total PBMCs from fresh human peripheral blood was optimized. Cells were identified using FSC and SSC controls (FIG. 19A), while senescent cells, or C12FDG+ events, were identified with an emission of 514 nm (green channel).
To examine cellular phenotypes of C12FDG-stained cells, low, moderate, and high populations were sorted using FACS for two study participants (FIG. 20A). […] Using the same methodology, the rate and senolytic efficacy of Fisetin treatment were determined on PBMCs directly at 1, 4, 18, and 24 hr timepoints. […] Furthermore, the rate of senolytic activity of Fisetin was faster versus other known senotherapeutic drugs such as metformin, dasatinib, or quercetin (FIG. 21D).
Thus, it was next tested whether the reduction of highly senescent cells by Fisetin was associated with co-incident cell death. To this end, cells were co-stained with the viability stain DRAQ7.

[7] = system: bone marrow mesenchymal stem cells (BM-MSCs); assay: Senescent cells in bone marrow mesenchymal stem cells after Fisetin, C12FDG flow cytometry; assay type: cell-based, human; conditions: 33 μM Fisetin 24 hours, passage 3
Experimental: Reduction in senescent cells in BMSCs after senolytic treatment: To determine a reduction in senescent cells in bone marrow stem cells after senolytic therapy, approximately 5 mL of bone marrow concentrate were obtained from a person. The BMC samples were immediately processed further to isolate the mononuclear layer and plated in a T25 flask to expand BM-MSCs. Bone marrow cells were pre-plated for 3-weeks in basal culture medium (CM) and passaged with CM+Fibroblast Growth Factor (FGF) to expand bone marrow mesenchymal stem cells (BM-MSCs). At passage 3, confluent BM-MSCs were treated with CM+FGF, 33 μM of DMSO, or 33 μM of Fisetin+GM+FGF for 24-hours in a 12-well plate. Then, […] of bafilomycin (inhibits lysosomal acidification) and […] of C12FDG (senescent label) were used to assess senescence via flow cytometry. In BM-MSCs at passage 3, the number of senescent in the Fisetin treated BM-MSCs was reduced by approximately 24% compared to the DMSO treated BM-MSCs, and approximately a 5% reduction of senescent cells was observed when compared to control BM-MSCs (FIG. 27).

[8] = system: osteochondral defect in the patellar groove of New Zealand White rabbits; conditions: 6 weeks after surgery; Losartan 10 mg/kg/day oral; cited from earlier work
[9] = system: osteochondral defect in the patellar groove of New Zealand White rabbits; assay: Rabbit osteochondral defect model, microfracture plus oral Losartan; assay type: in vivo
Experimental: An osteochondral defect (diameter: 5 mm, depth: 2 mm) was made in the patellar groove of 48 New Zealand White rabbits. The rabbits were divided into 3 groups (8/group/time point): control (osteochondral defect only), microfracture (defect+microfracture), and Losartan (defect+microfracture+Losartan). For the Losartan group, a dose of 10 mg/kg/day of Losartan was orally administrated by mixing with the chew treat daily.

With O=c1c(O)c(-c2ccc(O)c(O)c2)oc2cc(O)cc(O)c12 [Quercetin] the “incidence/severity of age-related disorders including osteoarthritis (OA)” value (“incidence/severity” below) [1] was “can reduce”.

For O=c1c(O)c(-c2ccc(O)c(O)c2)oc2cc(O)ccc12 [Fisetin, 2-(3,4-dihydroxyphenyl)-3,7-dihydroxychromen-4-one], the “number of senescent cells in the expanded ADSCs in vitro” value ([2]; 50 μM Fisetin for 24 hours, then cultured 48 hours, passage 4 ADSCs from young and old female) was “significantly reduced”, the “-H2AX and H3K9 in Adipose Derived Stem Cells” value ([2]; FIG. 4, senescence quantified by H2AX and H3K9 staining) was “reduces” and the “levels of moderately and highly senescent CD3+ T-Cells” value [3] was “reduces”. For the same compound, the “OP marker OPG in plasma” value ([3]; pre- vs. post-Fisetin) was “reduction”, the “OP marker OPN in plasma” value ([3]; pre- vs. post-Fisetin) was “reduction” and the “OP marker SOST in plasma” value ([3]; pre- vs. post-Fisetin) was “reduction”. For the same compound, the “pro-inflammatory SASP marker TNF-α in plasma” value ([3]; pre- vs. post-Fisetin) was “reduction”, the “Macroscopic assessment, gross images compared to the control group” value ([4]; 6 weeks postoperatively, control = BMS, without medication, without BMAC) was “significant improvement” and the “Microscopic evaluation and micro-CT” value [4] was “trend toward improvement”. The “healing capacity of BMS-mediated osteochondral defects” value [4] was “enhanced”, the articular cartilage degeneration ([1]; murine model of natural and accelerated (progeria) aging) was “delay” and the “incidence/severity” value [1] was “can reduce”. The “expression level of Superoxide Dismutase 1 (SOD1) in the synovium” value [5] was “significantly higher”, the “time of maximum reduction of high senescent cells” value ([6]; Fisetin on PBMCs directly) was 4 h and the “time to significant reduction of high senescent cells” value ([6]; Fisetin on PBMCs directly) was at most 1 h. The “high senescent cell counts and percent senescent cells” value ([6]; Fisetin on PBMCs directly, timepoints 1, 4, 18, 24 hr) was “significantly reduced”, the “DRAQ7+ cells (cell death) with decrease in highly senescent cells” value ([6]; co-stained with viability stain DRAQ7, 1 and 4 hrs) was “concomitant increases” and the “effect on highly senescent cells vs moderately senescent cells” value ([6]; isolated PBMCs (FIG. 22D)) was “primarily affect only highly senescent cells and not moderately senescent cells; also recorded: selectively kills highly senescent cells”. The “rate of senolytic activity” value ([6]; versus metformin, dasatinib, or quercetin (FIG. 21D)) was “faster”, the “reduction of number of senescent cells in BM-MSCs” value ([7]; compared to DMSO treated BM-MSCs) was “approximately 24%” and the “reduction of senescent cells in BM-MSCs” value ([7]; compared to control BM-MSCs (CM+FGF)) was “approximately 5%”.

For CO[C@H]1/C=C\C=C(/C)C(=O)NC2=CC(=O)C(NCCN(C)C)=C(C[C@@H](C)C[C@H](OC)[C@H](O)[C@@H](C)/C=C(\C)[C@@H]1OC(N)=O)C2=O [Alvespimycin], the “incidence/severity” value [1] was “can reduce”.

For CCCCc1nc(Cl)c(CO)n1Cc1ccc(-c2ccccc2-c2nn[nH]n2)cc1 [Losartan], the “articular cartilage repair compared to microfracture or control groups” value [8] is listed as “significantly improved”, the “Microscopic evaluation and micro-CT” value [4] is listed as “trend toward improvement” and the “healing capacity of BMS-mediated osteochondral defects” value [4] is listed as “enhanced”. For the same compound, the ICRS macroscopic score ([9]; 12 weeks, Losartan 10 mg/kg/day oral + microfracture) was 11.7±0.5, the “modified O'Driscoll score (based on Safranin O staining) compared to the other 2 groups” value ([9]; Losartan 10 mg/kg/day oral + microfracture) was “significantly higher” and the “Immunohistochemistry staining of cartilage (Col2)” value ([9]; Losartan treatment group) was “nearly normal structure with hyaline-like column-arranged chondrocytes”.
